“And” between values parts separate entries of the source, which are not always exact repeats. Identical values can stand only once.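 Exposure lasted 48 hours, with cells grown in 96-well plates and compounds tested at five concentrations. GI50 marks 50% less growth. At the TGI there is no net growth.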 Numbered stars: 1 amine (or outer) side, 2 acyl side, 3 side chain; on linkers, the order of the positions; unused ones are H or OH. Bridge positions count the residues as written; N and C are the ends. Square brackets hold non-standard residues; d marks the D form. Peptide text beside a SMILES is read from it. I, II: the chains in the order shown. Actinocin(1to9) = Cc1c2oc3c(C)ccc(C(=O)[*:2])c3nc-2c(C(=O)[*:1])c(N)c1=O; NMeY = CN[CH](Cc1ccc(O)cc1)C(=O)O; Sar = CNCC(=O)O
Tests used:
Assay in all cases: inhibition of tumour cell growth, NCI panel, 48 h
MOLT-4 leukemia = tested on: MOLT-4 leukemia
LOX IMVI melanoma = tested on: LOX IMVI melanoma
NCI-H226 lung = tested on: NCI-H226 lung
RXF 393 renal = tested on: RXF 393 renal
A549 NSCLC = tested on: A549 NSCLC
SK-MEL-28 melanoma = tested on: SK-MEL-28 melanoma
U251 CNS = tested on: U251 CNS
SNB-75 CNS = tested on: SNB-75 CNS
EKVX NSCLC = tested on: EKVX NSCLC

| Structure (SMILES) | TGI (MOLT-4 leukemia) [µM] | TGI (LOX IMVI melanoma) [µM] | TGI (NCI-H226 lung) [µM] | TGI (RXF 393 renal) [µM] | TGI (A549 NSCLC) | TGI (SK-MEL-28 melanoma) [µM] | TGI (U251 CNS) [µM] | TGI (SNB-75 CNS) [µM] | TGI (EKVX NSCLC) | GI50 (MOLT-4 leukemia) [µM] | GI50 (LOX IMVI melanoma) | GI50 (RXF 393 renal) | GI50 (U251 CNS) [µM] | GI50 (EKVX NSCLC) | GI50 (A549 NSCLC) [µM] | GI50 (SK-MEL-28 melanoma) [µM] | GI50 (SNB-75 CNS) [µM] | GI50 (NCI-H226 lung) [µM] |
| --- | --- | --- | --- | --- | --- | --- | --- | --- | --- | --- | --- | --- | --- | --- | --- | --- | --- | --- |
| COc1cc(/C=N/N=C(\N)NO)c([N+](=O)[O-])cc1OC | > 100 | 83.5 | 54.4 | 65.2 | > 100 µM | > 100 | > 100 | 78.9 | > 100 µM |  |  |  |  |  |  |  |  |  |
| C=C1C(OC(C)=O)CC(OC(C)=O)C2(C)C(OC(C)=O)C(OC(C)=O)C3=C(C)C(OC(=O)/C=C/c4ccccc4)CC(C(OC(C)=O)C12)C3(C)C (stereo not drawn) | > 100 | > 100 | > 100 | > 100 | > 100 µM |  | > 100 | 43.4 |  |  |  |  |  |  |  |  |  |  |
| COc1ccc(CC2C(=O)OC(C)C(NC(=O)c3c4nc5c(C(=O)NC6C(=O)NC(C(C)C)C(=O)N7CCCC7C(=O)N(C)CC(=O)N(C)C(Cc7ccc(OC)cc7)C(=O)OC6C)ccc(C)c5oc-4c(C)c(=O)c3N)C(=O)NC(C(C)C)C(=O)N3CCCC3C(=O)N(C)CC(=O)N2C)cc1 (stereo not drawn) (I: TVP[Sar][NMeY](Me) / II: TVP[Sar][NMeY](Me); ester I:1-I:C, II:1-II:C; linker I:N-II:N via Actinocin(1to9); configuration not given here) |  |  | > 0.213 |  | 0.29 µM and > 1 µM |  | > 1 | 0.158 | 0.0734 µM and > 0.617 µM | 0.00152 | < 0.01 µM and 0.00423 µM | < 0.01 µM and 0.0306 µM | 0.00189 | < 0.01 µM and 0.0696 µM |  |  |  |  |
| O=C1NC2C(O)CCCCC2C12CCCCC2 (stereo not drawn) | > 100 | > 100 |  | > 100 | > 100 µM | > 100 | > 100 | > 100 | > 100 µM |  |  |  |  |  |  |  |  |  |
| CC(=O)[O-].N.N.N.N.[Co+3].[O-][Cl+3]([O-])([O-])[O-].[OH3+] | > 100 | > 100 |  |  | > 100 µM | > 100 | > 100 | > 100 | > 100 µM | > 100 | > 100 µM |  | > 100 | > 100 µM | > 100 | > 100 | 55.1 |  |
| COc1ccc2c(c1)CN1CCc3c(cc(OC)c(OC)c3OC)C1C2 (stereo not drawn) | > 100 |  | > 100 | > 100 | > 100 µM | > 100 | > 100 | > 100 | > 100 µM |  |  |  |  |  |  |  |  |  |
| CC(=O)NN1C(=O)C(Cc2ccccc2)c2ccccc21 (stereo not drawn) | > 100 | > 100 | > 100 |  | > 100 µM | > 100 | > 100 | > 100 | > 100 µM |  |  |  |  |  |  |  |  |  |
| CCC[CH2][Sn]1([CH2]CCC)[S]CC[N]1S(=O)(=O)c1ccc(C)cc1 | 4.04 |  | 3.45 |  | 9.32 µM | 2.61 | 2.1 | 2.38 |  | 1.14 |  |  | 0.885 |  | 3.15 | 1.29 | 1.13 | 2.03 |
| C1=CCCC=CCC1.C[PH+](C)C.C[PH+](C)C.C[PH+](C)C.[Cl-].[Ir] | > 100 | > 100 |  | > 100 | > 100 µM | > 100 | > 100 | > 100 | > 100 µM | 30.2 | 31.4 µM | > 100 µM | 46.2 | 76.1 µM | 80.1 | 46.6 | 34.3 |  |
| c1ccc(OC2=NC3=S(S2)SC(Oc2ccccc2)=N3)cc1 | 31 | 43.4 | 90.4 | 24.2 | 47.6 µM |  | 26.8 | 59.5 | 48.3 µM |  |  |  |  |  |  |  |  |  |
| COc1cc(/C=C2\CCCC3=C2N=C2SC(C)=NN2C3c2cc(OC)c(OC)c(OC)c2)cc(OC)c1OC (stereo not drawn) | > 100 |  |  |  | > 100 µM |  |  |  |  | 0.391 |  |  |  |  | > 100 |  |  |  |
| CCC(CO)Nc1nc2c(c(=O)n(C)c(=O)n2C)n1CCO (stereo not drawn) | > 100 |  | > 100 | > 100 | > 100 µM | > 100 | > 100 | > 100 | > 100 µM |  |  |  |  |  |  |  |  |  |
| COC(=O)CC[C@]12C[C@]13CC[C@]1(C)C4C(C)C[C@]5(CC(C)C(=O)O5)OC4CC1(C)C3CCC2C(C)(C)O (stereo partly drawn) |  | > 100 |  | > 100 | > 100 µM | > 100 | > 100 | > 100 | > 100 µM |  |  |  |  |  |  |  |  |  |
| COc1ccc2c(c1)CCc1c-2n[nH]c1-c1[nH]nc2c1CCc1cc(OC)ccc1-2 | > 100 | > 100 | 85.9 |  | > 100 µM | > 100 | > 100 | 61.3 | > 100 µM |  |  |  |  |  |  |  |  |  |
| CC(=O)[CH-]C(=O)c1ccccc1.CC(=O)[CH-]C(=O)c1ccccc1.[O-]c1ccc2c(c1)OCO2.[O-]c1ccc2c(c1)OCO2.[Ti+4] | 51.5 | 55 | 85 |  | > 100 µM | > 100 | > 100 | 66.1 | 72.9 µM | 15.4 | 18.2 µM |  | 22.2 | 25.8 µM | 41.7 | 32.7 | 19.2 | 24.9 |

From PubChem BioAssay (NCI)
